# From US9725468B2, “C5-spiro iminothiazine dioxides as BACE inhibitors, compositions, and their use” (Merck Sharp & Dohme Corp., priority 2013, dated 2017)
# Legend:
# [1] = target: T1, purified human autoBACE-2 (Homo sapiens, UniProt Q9Y5Z0); experiment: BACE-2 Assay (BACE-HTRF assay); assay type: biochemical; details: Ki calculated from IC50 using the Cheng-Prusoff equation; QSY7-EISEVNLDAEFC-Eu-amide substrate 200 nM, pH 5.0; read-out: BACE2 Ki
# T1 sequence (Q9Y5Z0 63-473 limits assumed): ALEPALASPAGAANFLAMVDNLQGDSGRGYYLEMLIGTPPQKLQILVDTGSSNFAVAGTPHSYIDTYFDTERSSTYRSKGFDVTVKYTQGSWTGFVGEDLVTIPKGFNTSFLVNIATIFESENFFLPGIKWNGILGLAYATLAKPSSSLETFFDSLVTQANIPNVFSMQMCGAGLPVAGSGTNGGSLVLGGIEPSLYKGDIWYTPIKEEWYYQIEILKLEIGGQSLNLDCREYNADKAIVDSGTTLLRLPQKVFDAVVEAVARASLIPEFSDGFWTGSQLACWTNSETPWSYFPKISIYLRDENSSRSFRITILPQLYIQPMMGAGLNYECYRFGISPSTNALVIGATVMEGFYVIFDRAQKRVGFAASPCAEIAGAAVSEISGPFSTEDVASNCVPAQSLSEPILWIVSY
# Method: Inhibitor ICsos at purified human autoBACE-2 are determined in a time-resolved endpoint proteolysis assay that measures hydrolysis of the QSY7-EISEVNLDAEFC-Eu-amide FRET peptide substrate (BACE-HTRF assay). BACE-mediated hydrolysis of this peptide results in an increase in relative fluorescence (RFU) at 620 nm after excitation with 320 nm light. Inhibitor compounds, prepared at 3× the desired final concentration in 1×BACE assay buffer (20 mM sodium acetate pH 5.0, 10% glycerol, 0.1% Brij-35) supplemented with 7.5% DMSO are preincubated with an equal volume of autoBACE-2 enzyme diluted in 1×BACE assay buffer (final enzyme concentration 1 nM) in black 384-well NUNC plates for 30 minutes at 30° C. The assay is initiated by addition of an equal volume of the QSY7-EISEVNLDAEFC-Eu-amide substrate (200 nM final concentration, […]) prepared in 1×BACE assay buffer supplemented with 7.5% DMSO and incubated for 90 minutes at 30° C. DMSO is present at 5% final concentration in the assay. Following laser excitation of sample wells at 320 nm, the fluorescence signal at 620 nm is collected for 400 ms following a 50 μs delay on a RUBYstar HTRF plate reader (BMG Labtechnologies). Raw RFU data is normalized to maximum (1.0 nM BACE/DMSO) and minimum (no enzyme/DMSO) RFU values. IC50s are determined by nonlinear regression analysis (sigmoidal dose response, variable slope) of percent inhibition data with minimum and maximum values set to 0 and 100 percent respectively. Similar IC50s are obtained when using raw RFU data. The Ki values are calculated from the IC50 using the Cheng-Prusoff equation.
# [2] = target: soluble human BACE1 catalytic domain (Homo sapiens, UniProt P56817); experiment: BACE1 HTRF FRET Assay; assay type: biochemical; details: Ki calculated from IC50 using the Cheng-Prusoff equation; QSY7-APPswe-Eu substrate 200 nM, pH 5.0
# Excerpt: Na^+-Acetate pH 5.0; 1% Brij-35; Glycerol; Dimethyl Sulfoxide (DMSO); Recombinant human soluble BACE1 catalytic domain (>95% pure); APP Swedish mutant peptide substrate (QSY7-APP^swe-Eu): QSY7-EISEVNLDAEFC-Europium-amide.
# A homogeneous time-resolved FRET assay can be used to determine IC50 values for inhibitors of the soluble human BACE1 catalytic domain. This assay monitors the increase of 620 nm fluorescence that resulted from BACE1 cleavage of an APPswedish APP^swe mutant peptide FRET substrate (QSY7-EISEVNLDAEFC-Europium-amide). This substrate contains an N-terminal QSY7 moiety that serves as a quencher of the C-terminal Europium fluorophore (620 nm Em). In the absence of enzyme activity, 620 nm fluorescence is low in the assay and increased linearly over 3 hours in the presence of uninhibited BACE1 enzyme. Inhibition of BACE1 cleavage of the QSY7-APP^swe-Eu substrate by inhibitors is manifested as a suppression of 620 nm fluorescence.
# Varying concentrations of inhibitors at 3× the final desired concentration in a volume of 10 ul are preincubated with purified human BACE1 catalytic domain (3 nM in 10 μl) for 30 minutes at 30° C. in reaction buffer containing 20 mM Na-Acetate pH 5.0, 10% glycerol, 0.1% Brij-35 and 7.5% DSMO. Reactions are initiated by addition of 10 μl of 600 nM QSY7-APP^swe-Eu substrate (200 nM final) to give a final reaction volume of 30 μl in a 384 well Nunc HTRF plate. The reactions are incubated at 30° C. for 1.5 hours. The 620 nm fluorescence is then read on a Rubystar HTRF plate reader (BMG Labtechnologies) using a 50 millisecond delay followed by a 400 millisecond acquisition time window. Inhibitor IC50 values are derived from non-linear regression analysis of concentration response curves. Ki values are then calculated from IC50 values using the Cheng-Prusoff equation using a previously determined […] for the QSY7-APP^swe-Eu substrate at BACE1.
# soluble human BACE1 catalytic domain, sequence (P56817 75-416 limits assumed): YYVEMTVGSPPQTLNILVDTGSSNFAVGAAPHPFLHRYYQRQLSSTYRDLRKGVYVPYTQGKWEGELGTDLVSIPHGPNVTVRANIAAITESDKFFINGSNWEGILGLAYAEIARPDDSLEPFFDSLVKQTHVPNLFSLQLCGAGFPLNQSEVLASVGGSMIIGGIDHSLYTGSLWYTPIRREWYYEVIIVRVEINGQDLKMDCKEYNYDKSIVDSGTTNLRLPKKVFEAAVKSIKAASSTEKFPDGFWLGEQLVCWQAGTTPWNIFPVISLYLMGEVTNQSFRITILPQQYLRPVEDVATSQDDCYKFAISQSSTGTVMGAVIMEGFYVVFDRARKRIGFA
Ki [1] [nM],Ki [2] [nM],Compound
163,57,CC1(C)C(=N)N[C@@]2(CCCc3ccc(NC(=O)c4cnc(C(F)(F)F)cn4)cc32)CS1(=O)=O [Example G-12]
6,83,Cc1nc(C(=O)Nc2ccc3c(c2)[C@]2(CCC3)CS(=O)(=O)C(C)(C)C(=N)N2)no1 [Example G-13]
7,55,CC1(C)C(=N)N[C@@]2(CCCc3ccc(NC(=O)c4ccc(F)cn4)cc32)CS1(=O)=O [Example G-14]
22,12,CC1(C)C(=N)N[C@@]2(CCCc3ccc(NC(=O)c4ccc(OC(F)F)cn4)cc32)CS1(=O)=O [Example G-15]
51,13,CC1(C)C(=N)N[C@@]2(CCCc3ccc(NC(=O)c4ccc(OC(F)(F)F)cn4)cc32)CS1(=O)=O [Example G-16]
156,140,CC1(C)C(=N)N[C@@]2(CCCc3ccc(NC(=O)c4cnc(OCCF)cn4)cc32)CS1(=O)=O [Example G-17]
7,18,CC1(C)C(=N)N[C@@]2(CCCc3ccc(NC(=O)c4ccc(OCF)cn4)cc32)CS1(=O)=O [Example G-18]
3,21,Cc1nc(C(=O)Nc2ccc3c(c2)[C@]2(CCC3)CS(=O)(=O)C(C)(C)C(=N)N2)co1 [Example G-19]
7,31,COc1ccc(C(=O)Nc2ccc3c(c2)[C@]2(CCC3)CS(=O)(=O)C(C)(C)C(=N)N2)nc1 [Example G-20]
12,4,CC1(C)C(=N)N[C@@]2(CCCc3ccc(NC(=O)c4ccc(C#N)cn4)cc32)CS1(=O)=O [Example G-21]
161,160,CC1(C)C(=N)N[C@@]2(CCCc3ccc(NC(=O)c4ncc(C(F)(F)F)cn4)cc32)CS1(=O)=O [Example G-22]
1120,138,CC1(C)C(=N)N[C@@]2(CCCc3ccc(NC(=O)c4cn5cc(C#N)ccc5n4)cc32)CS1(=O)=O [Example G-23]
30,8,CC1(C)C(=N)N[C@@]2(CCCc3ccc(NC(=O)c4ccc(C(F)(F)F)cn4)cc32)CS1(=O)=O [Example G-24]
